What all share (type): ADME
For series [1], the target named is T1, Cytochrome P450 2B6 (Homo sapiens, UniProt P20813).
T1 sequence (P20813 whole entry): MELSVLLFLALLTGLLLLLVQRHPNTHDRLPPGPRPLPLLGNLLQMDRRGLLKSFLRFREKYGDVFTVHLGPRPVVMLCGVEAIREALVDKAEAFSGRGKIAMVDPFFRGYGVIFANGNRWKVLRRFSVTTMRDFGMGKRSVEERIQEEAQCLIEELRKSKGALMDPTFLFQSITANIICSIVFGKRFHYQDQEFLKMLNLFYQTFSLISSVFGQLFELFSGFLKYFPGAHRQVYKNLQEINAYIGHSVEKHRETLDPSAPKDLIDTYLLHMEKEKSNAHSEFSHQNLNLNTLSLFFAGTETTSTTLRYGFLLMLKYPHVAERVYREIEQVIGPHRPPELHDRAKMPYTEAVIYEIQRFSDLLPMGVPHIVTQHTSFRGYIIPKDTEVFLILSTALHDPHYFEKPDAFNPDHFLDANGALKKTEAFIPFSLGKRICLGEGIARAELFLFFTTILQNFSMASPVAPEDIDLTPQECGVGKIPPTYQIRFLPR
The series can be described thus: Activity of human recombinant CYP2B6 assessed as enzyme-mediated drug metabolism at 10 uM after 120 mins by LC-MS/MS analysis. The note with it: 2 h.

Series [2] concerns the target T2, Cytochrome P450 4F3 (Homo sapiens, UniProt Q08477).
T2 sequence (Q08477 whole entry): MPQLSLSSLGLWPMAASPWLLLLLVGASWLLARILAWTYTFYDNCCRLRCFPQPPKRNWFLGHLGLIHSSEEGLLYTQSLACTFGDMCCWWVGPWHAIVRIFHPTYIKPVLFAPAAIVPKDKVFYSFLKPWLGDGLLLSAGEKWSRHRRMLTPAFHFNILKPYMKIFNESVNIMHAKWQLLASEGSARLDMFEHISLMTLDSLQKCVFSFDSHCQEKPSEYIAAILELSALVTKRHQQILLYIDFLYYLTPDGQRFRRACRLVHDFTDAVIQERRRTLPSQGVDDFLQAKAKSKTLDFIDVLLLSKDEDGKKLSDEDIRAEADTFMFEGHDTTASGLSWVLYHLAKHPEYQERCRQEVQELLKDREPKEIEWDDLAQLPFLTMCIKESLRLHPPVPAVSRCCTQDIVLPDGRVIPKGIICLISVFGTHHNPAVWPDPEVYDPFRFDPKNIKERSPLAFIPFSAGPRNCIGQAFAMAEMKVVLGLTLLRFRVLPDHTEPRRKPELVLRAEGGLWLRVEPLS
The series can be described thus: Activity of human recombinant CYP4F3A assessed as enzyme-mediated 2-hydroxyethyl (1R,3aR,4aR,6R,8aR,9S,9aS)-9-((E)-2-(5-(3-fluorophenyl)pyridin-2-yl)vinyl)-1-methyl-3-oxododecahydronaphtho[2,3-c]furan-6-ylcarbamate formation at 25 uM after 120 mins by LC-MS/MS analysis in presence of NADPH. The note with it: 2 h.

Series [3] deals with T2, Cytochrome P450 4F3. The series can be described thus: Activity of human recombinant CYP4F3A assessed as enzyme-mediated (3R,3aS,4S,4aR,7R,8aR,9aR)-7-amino-4-((E)-2-(5-(3-fluorophenyl)pyridin-2-yl)vinyl)-3-methyldecahydronaphtho[2,3-c]furan-1(3H)-one formation at 25 uM after 120 mins by LC-MS/MS analysis in presence of NADPH. The note with it: 2 h.
Another series concerns the target Cytochrome P450 3A5 (Homo sapiens, UniProt P20815). The series can be described thus: Activity of human recombinant CYP3A5 assessed as enzyme-mediated 2-hydroxyethyl (1R,3aR,4aR,6R,8aR,9S,9aS)-9-((E)-2-(5-(3-fluorophenyl)pyridin-2-yl)vinyl)-1-methyl-3-oxododecahydronaphtho[2,3-c]furan-6-ylcarbamate formation at 25 uM after 120 mins by LC-MS/MS analysis in presence of NADPH. The following applies: 2 h.

The next series addresses T3, Cytochrome P450 1A1 (Homo sapiens, UniProt P04798).
T3 sequence (P04798 whole entry): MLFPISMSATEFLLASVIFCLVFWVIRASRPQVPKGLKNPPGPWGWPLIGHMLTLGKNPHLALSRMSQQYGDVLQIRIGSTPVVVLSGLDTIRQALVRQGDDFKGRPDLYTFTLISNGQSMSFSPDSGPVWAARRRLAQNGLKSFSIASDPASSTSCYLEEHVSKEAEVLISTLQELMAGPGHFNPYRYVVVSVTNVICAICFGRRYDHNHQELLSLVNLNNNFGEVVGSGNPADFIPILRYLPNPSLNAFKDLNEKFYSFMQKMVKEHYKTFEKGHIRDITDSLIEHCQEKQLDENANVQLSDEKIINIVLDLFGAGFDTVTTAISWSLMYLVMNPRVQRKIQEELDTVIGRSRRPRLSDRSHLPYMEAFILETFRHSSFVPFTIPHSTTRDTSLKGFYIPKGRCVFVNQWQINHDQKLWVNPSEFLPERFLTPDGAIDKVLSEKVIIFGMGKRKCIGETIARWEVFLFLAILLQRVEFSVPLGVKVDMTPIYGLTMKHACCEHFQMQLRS
Nature of the series: Activity of human recombinant CYP1A1 assessed as enzyme-mediated drug metabolism treated with 25 uM vorapaxar after 120 mins by LC-MS/MS analysis in presence of NADPH. The note with it: 2 h.

Series [4] addresses T1, Cytochrome P450 2B6. Nature of the series: Activity of human recombinant CYP2B6 assessed as enzyme-mediated drug metabolism treated with 25 uM vorapaxar after 120 mins by LC-MS/MS analysis in presence of NADPH. The note with it: 2 h.
Series [5] relates to Liver microsome. The series can be described thus: Drug metabolism in human liver microsomes assessed as (3R,3aS,4S,4aR,7R,8aR,9aR)-7-amino-4-((E)-2-(5-(3-fluorophenyl)pyridin-2-yl)vinyl)-3-methyldecahydronaphtho[2,3-c]furan-1(3H)-one formation at 10 to 25 uM after 120 mins by LC-MS/MS analysis in presence of alpha-napthoflavone. The note with it: 2 h. For orientation: Liver microsomes are a subcellular fraction often used to study metabolism.

Series [6] is described as follows: Drug metabolism in human intestine microsomes assessed as 2-hydroxyethyl (1R,3aR,4aR,6R,8aR,9S,9aS)-9-((E)-2-(5-(3-fluorophenyl)pyridin-2-yl)vinyl)-1-methyl-3-oxododecahydronaphtho[2,3-c]furan-6-ylcarbamate formation at 25 uM after 120 mins by LC-MS/MS analysis in presence of NADPH. The following applies: 2 h.
In series [7] the test system is Liver microsome. The series can be described thus: Drug metabolism in human liver microsomes overexpressing CYP3A4 assessed as (3R,3aS,4S,4aR,7R,8aR,9aR)-7-amino-4-((E)-2-(5-(3-fluorophenyl)pyridin-2-yl)vinyl)-3-methyldecahydronaphtho[2,3-c]furan-1(3H)-one formation at 25 uM after 120 mins by LC-MS/MS analysis in presence of ketoconazole. The following applies: 2 h.

For series [8], the system named is Liver microsome. The series can be described thus: Drug metabolism in human liver microsomes overexpressing CYP3A4 assessed as (3R,3aS,4S,4aR,7R,8aR,9aR)-7-amino-4-((E)-2-(5-(3-fluorophenyl)pyridin-2-yl)vinyl)-3-methyldecahydronaphtho[2,3-c]furan-1(3H)-one formation at 25 uM after 120 mins by LC-MS/MS analysis in presence of tranylcypromine. The following applies: 2 h.

A further series deals with Cytochrome P450 3A4 (Homo sapiens, UniProt P08684). The series can be described thus: Drug metabolism assessed as human recombinant CYP3A4-mediated 2-hydroxyethyl (1R,3aR,4aR,6R,8aR,9S,9aS)-9-((E)-2-(5-(3-fluorophenyl)pyridin-2-yl)vinyl)-1-methyl-3-oxododecahydronaphtho[2,3-c]furan-6-ylcarbamate formation at 25 uM after 120 mins by LC-MS/MS analysis in presence of astemizole. The following applies: recombinant enzyme, 2 h.

SMILES strings stand for the structures.

Sequence of Cytochrome P450 3A5 (P20815 whole entry): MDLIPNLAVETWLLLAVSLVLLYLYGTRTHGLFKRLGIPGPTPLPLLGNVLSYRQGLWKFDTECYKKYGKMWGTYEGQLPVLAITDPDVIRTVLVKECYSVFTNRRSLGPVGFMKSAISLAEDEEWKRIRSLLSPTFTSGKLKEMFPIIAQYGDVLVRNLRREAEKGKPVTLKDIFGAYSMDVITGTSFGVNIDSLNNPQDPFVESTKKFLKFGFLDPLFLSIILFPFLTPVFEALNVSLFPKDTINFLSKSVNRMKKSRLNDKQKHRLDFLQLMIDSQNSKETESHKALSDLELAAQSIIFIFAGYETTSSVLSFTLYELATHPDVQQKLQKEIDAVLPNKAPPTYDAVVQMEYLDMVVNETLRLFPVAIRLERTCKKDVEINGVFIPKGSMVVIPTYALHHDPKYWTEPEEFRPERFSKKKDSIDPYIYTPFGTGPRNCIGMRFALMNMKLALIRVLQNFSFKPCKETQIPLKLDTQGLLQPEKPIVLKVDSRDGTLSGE
Sequence of Cytochrome P450 3A4 (P08684 whole entry): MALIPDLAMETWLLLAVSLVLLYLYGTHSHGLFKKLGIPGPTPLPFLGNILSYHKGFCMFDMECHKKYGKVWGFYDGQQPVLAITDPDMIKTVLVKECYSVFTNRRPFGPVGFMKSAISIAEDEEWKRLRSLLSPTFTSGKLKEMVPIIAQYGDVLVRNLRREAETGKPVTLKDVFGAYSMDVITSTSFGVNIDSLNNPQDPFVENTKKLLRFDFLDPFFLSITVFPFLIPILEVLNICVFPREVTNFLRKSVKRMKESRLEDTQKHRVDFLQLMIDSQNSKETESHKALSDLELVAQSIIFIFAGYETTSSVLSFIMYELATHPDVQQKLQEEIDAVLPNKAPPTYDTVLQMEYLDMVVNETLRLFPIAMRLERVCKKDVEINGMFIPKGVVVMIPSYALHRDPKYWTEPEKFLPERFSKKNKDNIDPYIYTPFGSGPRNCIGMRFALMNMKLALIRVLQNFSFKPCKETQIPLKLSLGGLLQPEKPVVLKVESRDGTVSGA

With `CCOC(=O)N[C@@H]1CC[C@@H]2[C@@H](C1)C[C@H]1C(=O)O[C@H](C)[C@H]1[C@H]2/C=[14CH]/c1ccc(-c2cccc(F)c2)cn1`, the Drug metabolism result on Cytochrome P450 2B6 [1] was “metabolite_not_detected”; on Cytochrome P450 4F3 [2], “metabolite_detected”; at Cytochrome P450 4F3 [3], “metabolite_detected”; at Cytochrome P450 3A5, “metabolite_detected”.
As to `C[C@H]1OC(=O)[C@@H]2C[C@@H]3C[C@H](NC(=O)OCCO)CC[C@H]3[C@H](/C=C/c3ccc(-c4cccc(F)c4)cn3)[C@H]12`, the Drug metabolism result on Cytochrome P450 1A1 and at Cytochrome P450 2B6 [4] was “metabolite_detected” each time.
Turning to `CCOC(=O)N[C@@H]1CC[C@@H]2[C@@H](C1)C[C@H]1C(=O)O[C@H](C)[C@H]1[C@H]2/C=C/c1ccc(-c2cccc(F)c2)cn1` [VORAPAXAR], the Drug metabolism result is “metabolite_detected” in the series with Liver microsome [5]; “metabolite_detected” in series [6]; “metabolite_not_detected” in the series on Liver microsome [7]; “metabolite_not_detected” in the series with Liver microsome [8]; “metabolite_not_detected” on Cytochrome P450 3A4.
